The record followed here is PubChem BioAssay AID1996.

Converted amounts (≈) assume the structure as drawn.

A word on the kinetic solubility: it is the concentration staying in solution when a stock, usually in DMSO, is diluted into the medium.

The conditions of this series: buffer; pH 7.4; 200.0 µM.
In the case of `CN(C)c1cc(Nc2cccc(O)c2)c([N+](=O)[O-])c2nonc12`, the solubility (kinetic) worked out at 0.4 µg/mL (≈ 1.27 µM).
Regarding `NC(=O)c1c(NC(=O)c2ccccc2F)sc2c1CCCC2`, the kinetic solubility is 3 µg/mL (≈ 9.42 µM).
The same measure for `Cc1ccc(C(=O)NCCCNC(=O)COc2ccccc2Cl)cn1`: more than 54.3 µg/mL; for `CN1CCN(c2ccc(CNC(=O)c3cc4ccccc4o3)cc2)CC1`: 49.5 µg/mL (≈ 142 µM).
Consider `Cc1c(Cl)cccc1NC(=S)NCc1ccco1`, for which the kinetic solubility turned out to be 40.1 µg/mL (≈ 143 µM).
The compound `COc1ccc(-c2c3c(=O)n(C)c(=O)n(C)c3cn2-c2ccc(O)cc2)cc1` registered a solubility (kinetic) of 20.4 µg/mL (≈ 54.1 µM).
Then `CC(=O)Nc1ccc(NC(=O)c2cccc(S(=O)(=O)N3CCCCCC3)c2)cc1`, with 5.3 µg/mL (≈ 12.8 µM).
The same measure for `CSc1ccccc1NC(=O)c1ccccc1C`: 30.9 µg/mL (≈ 120 µM).
The same measure for `COc1ccc2cc(-c3ccon3)ccc2c1`: less than 0.5 µg/mL; for `COc1ccc(N2CCN(C(=O)CN3c4cccc5cccc(c45)S3(=O)=O)CC2)cc1`: 2.3 µg/mL (≈ 5.26 µM); for `CCNC(=O)NC1c2ccccc2CSc2ccccc21.O` (configuration not stated): 8.8 µg/mL.
For the compound `Cc1ccc(-c2csc3ncn(CC(=O)O)c(=O)c23)cc1C`, the kinetic solubility is more than 47.2 µg/mL.
Then `O=C(Cc1ccc(F)cc1)Nc1nc(-c2ccc(F)cc2)cs1`, with less than 0.4 µg/mL; and `Cc1cc(C)cc(NC(=O)Nc2ccccc2N2CCCCC2)c1`, with 25.5 µg/mL (≈ 78.8 µM).
The compound `CCOC(=O)N1CCN(CC(=O)Nc2cc(OC)c(OC)cc2C#N)CC1` came in with a kinetic solubility of 16.3 µg/mL (≈ 43.3 µM). Compared with the last compound, the solubility kinetic is about 1.6-fold lower.
As to `COc1ccc(Cl)cc1NC(=O)COC(=O)Cc1cc(OC)c(OC)c(OC)c1`, the kinetic solubility is 46.6 µg/mL (≈ 110 µM).
Then `N#Cc1ccccc1NC(=O)COc1ccc2c(c1)OCO2`, with 17.1 µg/mL (≈ 57.7 µM).
In turn, `COc1ccccc1NC(=O)c1csc2c1CCC(C)C2` (configuration not stated) displayed a kinetic solubility of 1.2 µg/mL (≈ 3.98 µM).
Then `Cc1cccc(NS(=O)(=O)c2ccc3oc(=O)ccc3c2)c1C`, with 44.8 µg/mL (≈ 136 µM).
Then `O=[N+]([O-])c1cccc(-c2ccc(CN3CCCCC3)o2)c1`, with 30.5 µg/mL (≈ 107 µM); and `CNC(=O)c1c(NC(=O)c2ccco2)sc2c1CCC2`, with 3.3 µg/mL (≈ 11.4 µM).
The same measure for `COc1ccc(C(=O)NCCCNC(=O)c2ccco2)cc1OC`: more than 49.9 µg/mL; for `O=C(c1ccccc1)N1CCN(C(=O)c2ccc3c(c2)OCO3)CC1`: more than 50.8 µg/mL; for `COc1ccc(CNC(=O)CN2CCN(S(=O)(=O)c3c(C)c(C)cc(C)c3C)CC2)cc1OC`: 3.5 µg/mL (≈ 7.15 µM).
In turn, `c1ccc(-c2noc(CN3CCc4sccc4C3)n2)cc1` displayed a solubility (kinetic) of 13.4 µg/mL (≈ 45.1 µM).
The same measure for `COc1ccc(C)cc1S(=O)(=O)Nc1ccncc1`: more than 41.7 µg/mL; for `Cc1nc2ccc(NC(=O)Cc3cccc(F)c3)cc2s1`: 11.5 µg/mL (≈ 38.3 µM); for `O=S(=O)(NC1CCCCCCC1)c1ccccc1`: 30 µg/mL (≈ 112 µM).
The same measure for `O=C(O)C1CCC(CNS(=O)(=O)c2ccccc2)CC1` (configuration not stated): more than 44.6 µg/mL; for `C=CCn1c(O)c(C=NC2CCN(Cc3ccccc3)CC2)c(=O)[nH]c1=O`: 54.1 µg/mL (≈ 147 µM); for `O=[N+]([O-])c1ccccc1/C=C/CN1CCCC(CO)C1` (configuration not stated): 33.2 µg/mL (≈ 120 µM).
`COc1ccc(NC(=O)CSc2cc(C)ccc2C)cn1`: the solubility (kinetic) was 45.1 µg/mL (≈ 149 µM).
Then `CCC(C)(C)NC(=O)CN(C(=O)c1ccc(N2CCCC2)nc1)c1ccc(F)cc1`, with 60.7 µg/mL (≈ 147 µM); and `CC(=O)C(Cc1ccc(Cl)nc1)Cc1ccc(Cl)nc1`, with 44.9 µg/mL (≈ 145 µM).
Then `Fc1ccc(NC(=S)N2CCN(c3ccccn3)CC2)cc1Cl`, with less than 0.2 µg/mL; and `CCN(C(=O)C(C)Cl)c1ccccc1` (configuration not stated), with 20.6 µg/mL (≈ 97.3 µM).
The same measure for `Cc1nnc(SCC(=O)NC2CCCCC2)[nH]c1=O`: more than 42.4 µg/mL; for `Cc1ccc(C(=O)Nc2ccccc2N2CCCCC2)o1`: 2.8 µg/mL (≈ 9.85 µM).
`Nc1ncnc(Oc2cccc3cccnc23)c1[N+](=O)[O-]`: the solubility (kinetic) was determined as 33.8 µg/mL (≈ 119 µM).
The same measure for `CCNC(=S)NCCC1=c2ccccc2=N/C1=C\c1c(O)n(C)c(=O)n(C)c1=O`: 19.3 µg/mL (≈ 46.7 µM).
Then `Cc1ccc(O)c(NC(=O)c2ccc3c(c2)C(=O)N(CC(C)C)C3=O)c1`, with less than 0.4 µg/mL.
Then `CCN(C(=O)Cn1c(=O)oc2ccccc21)c1ccc(C)c(C)c1`, with 11.7 µg/mL (≈ 36.1 µM); and `O=C(NC(=S)NCc1ccccc1)c1cccc([N+](=O)[O-])c1`, with 2.2 µg/mL (≈ 6.98 µM); and `COC(=O)C(Cc1ccccc1)NC(=O)CCc1c[nH]c2ccccc12` (configuration not stated), with more than 52.6 µg/mL.
In turn, `COc1ccc(NC(=O)COCC(=O)Nc2ccc(C)cc2)cc1` registered a solubility (kinetic) of 44.3 µg/mL (≈ 135 µM).
The same measure for `CC(=O)NCCC(=O)Nc1nc(-c2c[nH]c3ccccc23)cs1`: 42.9 µg/mL (≈ 131 µM).
The same measure for `Cc1ccc(S(=O)(=O)NC(=NC(C)C)c2ccccc2)cc1`: more than 47.5 µg/mL; for `COc1nc(SCC(=O)Nc2ccccc2Cl)nc(N(C)C)n1`: 20.4 µg/mL (≈ 57.7 µM).
On to `O=C(NC(=S)N1CCc2ccccc21)C1CCC1`, for which the solubility (kinetic) is more than 39.1 µg/mL.
As for `COc1ccc(C/C(N)=N/OC(=O)c2cccs2)cc1`, the kinetic solubility was found to be 7.5 µg/mL (≈ 25.8 µM).
The same measure for `CCc1ccc(OC(=O)CN2C(=O)c3ccccc3C2=O)cc1`: 39.3 µg/mL (≈ 127 µM); for `CCS(=O)(=O)c1ccc(O)c(NC(=O)Nc2ccc(C(C)(C)C)cc2)c1`: 0.8 µg/mL (≈ 2.12 µM).
